Laboratory results from patent US8952024B2, “Herbicidal pyrimidone derivatives” (E I du Pont de Nemours and Company, priority 2009, dated 2015).

Key:
Test in all cases: Test B pre-/postemergence plant response
Format in all cases: in vivo
Conditions in all cases: Postemergence
[1] = system: Italian ryegrass (Lolium multiflorum)
Method in brief: (§1)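 Greenhouse herbicide screen. Pre- and postemergence (1- to 4-leaf) spray of compound in solvent/surfactant mixture; loam–sand soil for pre, peat/vermiculite medium for post. Visual control rating 0–100 at 13 to 15 days after treatment.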

[2] = system: blackgrass (Alopecurus myosuroides)
Method in brief: as §1

corn (Zea mays) = system: corn (Zea mays)
Method in brief: as §1

[3] = system: giant foxtail (Setaria faberii)
Method in brief: as §1

[4] = system: goosegrass (Eleusine indica)
Method in brief: as §1

[5] = system: green foxtail (Setaria viridis)
Method in brief: as §1

[6] = system: johnsongrass (Sorghum halepense)
Method in brief: as §1

kochia (Kochia scoparia) = system: kochia (Kochia scoparia)
Method in brief: as §1

[7] = system: large crabgrass (Digitaria sanguinalis)
Method in brief: as §1

[8] = system: morningglory (Ipomoea coccinea)
Method in brief: as §1

[9] = system: ragweed (common ragweed, Ambrosia elatior)
Method in brief: as §1

soybean (Glycine max) = system: soybean (Glycine max)
Method in brief: as §1

[10] = system: velvetleaf (Abutilon theophrasti)
Method in brief: as §1

[11] = 31 g ai/ha, 0 to 100 scale (0 no effect, 100 complete control)
[12] = 62 g ai/ha, scale 0 to 100 (0 no effect, 100 complete control)
[13] = 250 g ai/ha, scale 0 to 100 (0 no effect, 100 complete control), 13 to 15 days
[14] = 125 g ai/ha, scale 0 to 100 (0 no effect, 100 complete control)
[15] = 125 g ai/ha, scale 0 (no effect) to 100 (complete control), 13 to 15 days

`COCCn1c(-c2cccc(F)c2)ncc(C(=O)C2=C(O)C3CCC(C3)C2=O)c1=O` (stereo not shown) [Compound 235] was tested, and the “Plant response rating, Ryegrass, Italian” value [1, 11] was 30, the “Plant response rating, Ryegrass, Italian” value [1, 12] was 30 and the “Plant response rating, Ryegrass, Italian” value [1, 13] was 60. The “Plant response rating, Blackgrass” value [2, 11] was 45, the “Plant response rating, Blackgrass” value [2, 12] was 60 and the “Plant response rating, Blackgrass” value [2, 14] was 70. The “Plant response rating, Corn” value (corn (Zea mays); [11]) was 95, the “Plant response rating, Corn” value (corn (Zea mays); [12]) was 100 and the “Plant response rating, Corn” value (corn (Zea mays); [14]) was 100. The “Plant response rating, Corn” value (corn (Zea mays); [13]) was 100, the “Plant response rating, Foxtail, Giant” value [3, 11] was 98 and the “Plant response rating, Foxtail, Giant” value [3, 12] was 100. The “Plant response rating, Foxtail, Giant” value [3, 14] was 100, the “Plant response rating, Foxtail, Giant” value [3, 13] was 100 and the “Plant response rating, Goosegrass” value [4, 11] was 95. The “Plant response rating, Goosegrass” value [4, 12] was 98, the “Plant response rating, Goosegrass” value [4, 14] was 98 and the “Plant response rating, Goosegrass” value [4, 13] was 100. The “Plant response rating, Foxtail, Green” value [5, 11] was 90, the “Plant response rating, Foxtail, Green” value [5, 12] was 90 and the “Plant response rating, Foxtail, Green” value [5, 14] was 95. For the same compound, the “Plant response rating, Foxtail, Green” value [5, 13] was 98, the “Plant response rating, Johnsongrass” value [6, 11] was 70 and the “Plant response rating, Johnsongrass” value [6, 12] was 80. For the same compound, the “Plant response rating, Johnsongrass” value [6, 14] was 100, the “Plant response rating, Johnsongrass” value [6, 13] was 100 and the “Plant response rating, Kochia” value (kochia (Kochia scoparia); [11]) was 98. The “Plant response rating, Kochia” value (kochia (Kochia scoparia); [12]) was 100, the “Plant response rating, Kochia” value (kochia (Kochia scoparia); [14]) was 100 and the “Plant response rating, Kochia” value (kochia (Kochia scoparia); [13]) was 100. For the same compound, the “Plant response rating, Crabgrass, Large” value [7, 11] was 98, the “Plant response rating, Crabgrass, Large” value [7, 12] was 98 and the “Plant response rating, Crabgrass, Large” value [7, 14] was 98. For the same compound, the “Plant response rating, Crabgrass, Large” value [7, 13] was 100, the “Plant response rating, Morningglory” value [8, 11] was 95 and the “Plant response rating, Morningglory” value [8, 12] was 98. For the same compound, the “Plant response rating, Morningglory” value [8, 14] was 100, the “Plant response rating, Morningglory” value [8, 13] was 100 and the “Plant response rating, Ragweed” value [9, 11] was 98. For the same compound, the “Plant response rating, Ragweed” value [9, 12] was 100, the “Plant response rating, Ragweed” value [9, 13] was 100 and the “Plant response rating, Soybean” value (soybean (Glycine max); [11]) was 98. For the same compound, the “Plant response rating, Soybean” value (soybean (Glycine max); [12]) was 100, the “Plant response rating, Soybean” value (soybean (Glycine max); [13]) was 100 and the “Plant response rating, Velvetleaf” value [10, 11] was 95. For the same compound, the “Plant response rating, Velvetleaf” value [10, 12] was 100 and the “Plant response rating, Velvetleaf” value [10, 13] was 100.
`CCCCn1c(-c2cccc(F)c2)ncc(C(=O)C2=C(O)C3CCC(C3)C2=O)c1=O` (stereo not shown) [Compound 237] was tested, and the “Plant response rating, Ryegrass, Italian” value [1, 11] was 50, the “Plant response rating, Ryegrass, Italian” value [1, 12] was 50 and the “Plant response rating, Ryegrass, Italian” value [1, 15] was 60. For the same compound, the “Plant response rating, Ryegrass, Italian” value [1, 13] was 60, the “Plant response rating, Blackgrass” value [2, 11] was 50 and the “Plant response rating, Blackgrass” value [2, 12] was 70. For the same compound, the “Plant response rating, Blackgrass” value [2, 15] was 70, the “Plant response rating, Blackgrass” value [2, 13] was 80 and the “Plant response rating, Corn” value (corn (Zea mays); [11]) was 85. For the same compound, the “Plant response rating, Corn” value (corn (Zea mays); [12]) was 98, the “Plant response rating, Corn” value (corn (Zea mays); [15]) was 100 and the “Plant response rating, Corn” value (corn (Zea mays); [13]) was 100. The “Plant response rating, Foxtail, Giant” value [3, 11] was 98, the “Plant response rating, Foxtail, Giant” value [3, 12] was 98 and the “Plant response rating, Foxtail, Giant” value [3, 15] was 98. The “Plant response rating, Foxtail, Giant” value [3, 13] was 100, the “Plant response rating, Goosegrass” value [4, 11] was 95 and the “Plant response rating, Goosegrass” value [4, 12] was 98. For the same compound, the “Plant response rating, Goosegrass” value [4, 15] was 98, the “Plant response rating, Goosegrass” value [4, 13] was 98 and the “Plant response rating, Foxtail, Green” value [5, 11] was 80. The “Plant response rating, Foxtail, Green” value [5, 12] was 90, the “Plant response rating, Foxtail, Green” value [5, 15] was 95 and the “Plant response rating, Foxtail, Green” value [5, 13] was 95. For the same compound, the “Plant response rating, Johnsongrass” value [6, 11] was 100, the “Plant response rating, Johnsongrass” value [6, 12] was 100 and the “Plant response rating, Johnsongrass” value [6, 15] was 100. For the same compound, the “Plant response rating, Johnsongrass” value [6, 13] was 100, the “Plant response rating, Kochia” value (kochia (Kochia scoparia); [11]) was 65 and the “Plant response rating, Kochia” value (kochia (Kochia scoparia); [12]) was 80. The “Plant response rating, Kochia” value (kochia (Kochia scoparia); [15]) was 100, the “Plant response rating, Kochia” value (kochia (Kochia scoparia); [13]) was 100 and the “Plant response rating, Crabgrass, Large” value [7, 11] was 95. The “Plant response rating, Crabgrass, Large” value [7, 12] was 98, the “Plant response rating, Crabgrass, Large” value [7, 15] was 100 and the “Plant response rating, Crabgrass, Large” value [7, 13] was 100. The “Plant response rating, Morningglory” value [8, 11] was 85, the “Plant response rating, Morningglory” value [8, 12] was 95 and the “Plant response rating, Morningglory” value [8, 15] was 100. The “Plant response rating, Morningglory” value [8, 13] was 100, the “Plant response rating, Ragweed” value [9, 11] was 95 and the “Plant response rating, Ragweed” value [9, 12] was 98. The “Plant response rating, Ragweed” value [9, 15] was 100, the “Plant response rating, Ragweed” value [9, 13] was 100 and the “Plant response rating, Soybean” value (soybean (Glycine max); [11]) was 95. For the same compound, the “Plant response rating, Soybean” value (soybean (Glycine max); [12]) was 100, the “Plant response rating, Soybean” value (soybean (Glycine max); [15]) was 100 and the “Plant response rating, Soybean” value (soybean (Glycine max); [13]) was 100. The “Plant response rating, Velvetleaf” value [10, 11] was 85, the “Plant response rating, Velvetleaf” value [10, 12] was 90 and the “Plant response rating, Velvetleaf” value [10, 15] was 100. The “Plant response rating, Velvetleaf” value [10, 13] was 100.
With `COCCCn1c(-c2cccc(F)c2)ncc(C(=O)C2=C(O)C3CCC(C3)C2=O)c1=O` (stereo not shown) [Compound 238] the “Plant response rating, Ryegrass, Italian” value [1, 11] was 20, the “Plant response rating, Ryegrass, Italian” value [1, 12] was 25 and the “Plant response rating, Ryegrass, Italian” value [1, 15] was 25. For the same compound, the “Plant response rating, Ryegrass, Italian” value [1, 13] was 70, the “Plant response rating, Blackgrass” value [2, 11] was 40 and the “Plant response rating, Blackgrass” value [2, 12] was 60. For the same compound, the “Plant response rating, Blackgrass” value [2, 15] was 60, the “Plant response rating, Blackgrass” value [2, 13] was 70 and the “Plant response rating, Corn” value (corn (Zea mays); [11]) was 80. For the same compound, the “Plant response rating, Corn” value (corn (Zea mays); [12]) was 80, the “Plant response rating, Corn” value (corn (Zea mays); [15]) was 95 and the “Plant response rating, Corn” value (corn (Zea mays); [13]) was 95. For the same compound, the “Plant response rating, Foxtail, Giant” value [3, 11] was 100, the “Plant response rating, Foxtail, Giant” value [3, 12] was 100 and the “Plant response rating, Foxtail, Giant” value [3, 15] was 100. The “Plant response rating, Foxtail, Giant” value [3, 13] was 100, the “Plant response rating, Goosegrass” value [4, 11] was 95 and the “Plant response rating, Goosegrass” value [4, 12] was 98. For the same compound, the “Plant response rating, Goosegrass” value [4, 15] was 98, the “Plant response rating, Goosegrass” value [4, 13] was 98 and the “Plant response rating, Foxtail, Green” value [5, 11] was 85. For the same compound, the “Plant response rating, Foxtail, Green” value [5, 12] was 95, the “Plant response rating, Foxtail, Green” value [5, 15] was 98 and the “Plant response rating, Foxtail, Green” value [5, 13] was 98. For the same compound, the “Plant response rating, Johnsongrass” value [6, 11] was 60, the “Plant response rating, Johnsongrass” value [6, 15] was 98 and the “Plant response rating, Johnsongrass” value [6, 13] was 100. The “Plant response rating, Kochia” value (kochia (Kochia scoparia); [11]) was 90, the “Plant response rating, Kochia” value (kochia (Kochia scoparia); [12]) was 98 and the “Plant response rating, Kochia” value (kochia (Kochia scoparia); [15]) was 100. The “Plant response rating, Kochia” value (kochia (Kochia scoparia); [13]) was 100, the “Plant response rating, Crabgrass, Large” value [7, 11] was 95 and the “Plant response rating, Crabgrass, Large” value [7, 12] was 98. For the same compound, the “Plant response rating, Crabgrass, Large” value [7, 15] was 98, the “Plant response rating, Crabgrass, Large” value [7, 13] was 98 and the “Plant response rating, Morningglory” value [8, 15] was 100. For the same compound, the “Plant response rating, Morningglory” value [8, 13] was 100, the “Plant response rating, Ragweed” value [9, 11] was 100 and the “Plant response rating, Ragweed” value [9, 12] was 100. For the same compound, the “Plant response rating, Ragweed” value [9, 15] was 100, the “Plant response rating, Ragweed” value [9, 13] was 100 and the “Plant response rating, Soybean” value (soybean (Glycine max); [11]) was 98. The “Plant response rating, Soybean” value (soybean (Glycine max); [12]) was 100, the “Plant response rating, Soybean” value (soybean (Glycine max); [15]) was 100 and the “Plant response rating, Soybean” value (soybean (Glycine max); [13]) was 100. For the same compound, the “Plant response rating, Velvetleaf” value [10, 11] was 80, the “Plant response rating, Velvetleaf” value [10, 12] was 90 and the “Plant response rating, Velvetleaf” value [10, 15] was 100. The “Plant response rating, Velvetleaf” value [10, 13] was 100.
